Results reported in patent US20120046317A1, “NOVEL HETEROCYCLIC COMPOUNDS” (priority 2009, published 2012).
Like-named read-outs stand apart in the source and are kept apart here.

Columns and labels:
patients = settings: phase 2 clinical studies; particularly in more severely affected patients; cited from earlier work
[1] = rat, in vivo, po, 10 mg/kg
Experimental: (§1) Summary of Oral Pharmacokinetics of Reference Compound-T and Compound No. 100 in Wistar Rat:
(§2) Single dose pharmacokinetics of Reference compound-T (3-((2-(methylsulfonyl)hydrazino)carbonyl)-1-(2-oxo-2-thienylethyl)pyridinium chloride) and compound no. 100 was studied in male Wistar rat (280-300 gm, n=5) after oral administration at a dose of 10 mg/kg. Blood samples were obtained serially from jugular vein cannulated animals at selected time points and concentration of Reference compound-T and compound no. 100 in plasma was determined by LC-MS/MS. Non-compartmental pharmacokinetic analysis was performed using WinNonlin 5.2. […] 100.

[2] = male, dog, in vivo, po, 15 mg/kg
Experimental: (§3) Non-compartmental pharmacokinetic analysis was performed using WinNonlin 5.2.

in vivo [3] = settings: male, Wistar, rat, po, 10 mg/kg
Experimental: as §1, §2

in vivo [4] = settings: male, dog, po, 15 mg/kg
Experimental: as §3

[5] = tested on: AGE-LDL formation (Low density lipoprotein incubated with CuCl2); assay: In vitro inhibition of AGE-LDL formation: LDL incubated with CuCl2, MDA-lysine adduct fluorescence; assay type: biochemical; settings: LDL with CuCl2 at 37° C.
Experimental: In vitro Inhibition of AGE-LDL Formation:
Low density lipoprotein (LDL) was incubated with CuCl2 at 37° C. in phosphate buffered saline in the presence and absence of the following compounds. […] Results were expressed as % MDA-lysine adducts accumulation, considering the extent of the same formed upon incubation with CuCl2 alone as 100%.

[6] = tested on: AGE-BSA Formation (Bovine Serum Albumin incubated with ribose); assay: In vitro prevention of advanced glycation endproducts (AGEs) accumulation: BSA incubated with ribose, fluorescence; settings: one week
Experimental: A reduction in fluorescence intensity in the presence of the test compound is an indication of its ability to prevent accumulation of advanced glycation endproducts.
Bovine Serum Albumin was incubated with ribose alone as well as with ribose and different concentrations of the following compounds under aseptic conditions for one week. At the end of the incubation period fluorescence intensity of the samples was measured at excitation and emission wavelengths of 355 nm and 460 nm respectively.

[7] = Single dose oral pharmacokinetics of Reference compound-T and compound no. 100 in Wistar rat; settings: male Wistar rat, 10 mg/kg
Experimental: as §1, §2

[8] = Single dose oral pharmacokinetics of Reference compound-T and compound no. 100 in dog; settings: male dog, 15 mg/kg, administered compound in plasma, mean
Experimental: as §3

[9] = tested on: diabetic spontaneously hypertensive rats; settings: cited from earlier work
Ob-ZSF1 animal model = settings: cited from earlier work
[10] = administered compound in plasma, mean

Structure (SMILES): Cc1sc[n+](CC(=O)c2ccccc2)c1C [Alagebrium]
- Effect on cardiac function and systolic blood pressure (patients): effective in improving cardiac function and uncontrolled systolic blood pressure

Structure (SMILES): CS(=O)(=O)NNC(=O)C1=CN(CC(=O)c2cccs2)C=CC1 [Compound no. 100, N′-(methylsulfonyl)-1-[2-oxo-2-(thiophen-2-yl)ethyl]-1,4-dihydropyridine-3-carbohydrazide]
- Absorption [1]: absorbed rapidly
- Maximum plasma concentration of reference compound converted after administration of compound no. 100 in comparison to the administration of ref. compound [2]: ~3.6 times
- AUC(0-t) (in vivo [3]): 1410 ng·h/mL
- Cmax (in vivo [3]): 1350 ng/mL
- AUC(0-t) (in vivo [4]): 1780 ng·h/mL
- Cmax (in vivo [4]): 397 ng/mL
- % Inhibition of AGE-LDL-formation ([5]; Conc. 250 uM): ++++ (++++ indicate >30%)
- % Inhibition of AGE-BSA Formation ([6]; Conc. 1 mM): ++ (++ indicate 11-20%)

Structure (SMILES): CS(=O)(=O)NNC(=O)c1ccc[n+](CC(=O)c2cccs2)c1.[Cl-] [Reference compound-T, 3-((2-(methylsulfonyl)hydrazino)carbonyl)-1-(2-oxo-2-thienylethyl)pyridinium chloride]
- Absorption [7]: absorbed rapidly
- AUC(0-8 hr) [7, 10]: 203.6 ng·h/mL
- Cmax [7, 10]: 100.5 ng/mL
- AUC(0-24 hr) [8]: 2477.0 ng·h/mL
- Cmax [8]: 258.4 ng/mL

Structure (SMILES): CS(=O)(=O)NNC(=O)c1ccc[n+](CC(=O)c2cccs2)c1.[Br-] [TRC4149]
- Effect on endothelial and cardiac function [9]: preserved endothelial and cardiac function

Structure (SMILES): CS(=O)(=O)NNC(=O)c1ccc[n+](CC(=O)c2cccs2)c1.[Cl-] [TRC4186]
- Effect on diabetic cardiomyopathy and nephropathy (Ob-ZSF1 animal model): preserved cardiac function and reduced the severity of renal dysfunction

Structure (SMILES): COc1ccc(C(=O)CN2CCC=C(C(=O)NNS(C)(=O)=O)C2)cc1 [compound 172, 1-[2-(4-methoxyphenyl)-2-oxoethyl]-N′-(methylsulfonyl)-1,2,5,6-tetrahydropyridine-3-carbohydrazide]
- % Inhibition of AGE-LDL-formation ([5]; Conc. 50 uM): + (+ indicate 0-10%)
- % Inhibition of AGE-BSA Formation ([6]; Conc. 50 uM): + (+ indicate 0-10%)

Structure (SMILES): COc1ccc(C(=O)CN2CCC=C(C(=O)NNS(=O)(=O)c3ccc(C)cc3)C2)cc1 [compound 173, 1-[2-(4-methoxyphenyl)-2-oxoethyl]-N′-[(4-methylphenyl)sulfonyl]-1,2,5,6-tetrahydropyridine-3-carbohydrazide]
- % Inhibition of AGE-LDL-formation ([5]; Conc. 100 uM): + (+ indicate 0-10%)
- % Inhibition of AGE-BSA Formation ([6]; Conc. 100 uM): + (+ indicate 0-10%)

Structure (SMILES): Cc1ccc(C(=O)CN2CCC=C(C(=O)NNS(C)(=O)=O)C2)s1 [compound 174, N′-(methylsulfonyl)-1-[2-(5-methylthiophen-2-yl)-2-oxoethyl]-1,2,5,6-tetrahydropyridine-3-carbohydrazide]
- % Inhibition of AGE-LDL-formation ([5]; Conc. 250 uM): ++++ (++++ indicate >30%)
- % Inhibition of AGE-BSA Formation ([6]; Conc. 1 mM): + (+ indicate 0-10%)

Structure (SMILES): COc1ccc(C(=O)CN2CC=CC(C(=O)NNS(C)(=O)=O)C2)cc1 (stereo not shown) [compound 181, 1-[2-(4-methoxyphenyl)-2-oxoethyl]-N′-(methylsulfonyl)-1,2,3,6-tetrahydropyridine-3-carbohydrazide]
- % Inhibition of AGE-LDL-formation ([5]; Conc. 100 uM): + (+ indicate 0-10%)
- % Inhibition of AGE-BSA Formation ([6]; Conc. 250 uM): + (+ indicate 0-10%)

Structure (SMILES): Cc1ccc(C(=O)CN2CC=CC(C(=O)NNS(C)(=O)=O)C2)s1 (stereo not shown) [compound 182, N′-(methylsulfonyl)-1-[2-(5-methylthiophen-2-yl)-2-oxoethyl]-1,2,3,6-tetrahydropyridine-3-carbohydrazide]
- % Inhibition of AGE-LDL-formation ([5]; Conc. 250 uM): +++ (+++ indicate 21-30%)
- % Inhibition of AGE-BSA Formation ([6]; Conc. 1 mM): + (+ indicate 0-10%)

Structure (SMILES): CS(=O)(=O)NNC(=O)C1=CN(CC(=O)c2cccs2)CCC1 [compound 183, N′-(methylsulfonyl)-1-[2-oxo-2-(thiophen-2-yl)ethyl]-1,4,5,6-tetrahydropyridine-3-carbohydrazide]
- % Inhibition of AGE-LDL-formation ([5]; Conc. 250 uM): ++ (++ indicate 11-20%)
- % Inhibition of AGE-BSA Formation ([6]; Conc. 1 mM): +++ (+++ indicate 21-30%)

Structure (SMILES): CS(=O)(=O)NNC(=O)C1CCCN(CC(=O)c2cccs2)C1 (stereo not shown) [compound 184, N′-(methylsulfonyl)-1-[2-oxo-2-(thiophen-2-yl)ethyl]piperidine-3-carbohydrazide]
- % Inhibition of AGE-LDL-formation ([5]; Conc. 250 uM): +++ (+++ indicate 21-30%)
- % Inhibition of AGE-BSA Formation ([6]; Conc. 1 mM): + (+ indicate 0-10%)

Structure (SMILES): CS(=O)(=O)NNC(=O)C1=CCCN(CC(=O)c2cccs2)C1 [compound 185, N′-(methylsulfonyl)-1-[2-oxo-2-(thiophen-2-yl)ethyl]-1,2,5,6-tetrahydropyridine-3-carbohydrazide]
- % Inhibition of AGE-LDL-formation ([5]; Conc. 250 uM): +++ (+++ indicate 21-30%)
- % Inhibition of AGE-BSA Formation ([6]; Conc. 1 mM): + (+ indicate 0-10%)

Structure (SMILES): CS(=O)(=O)NNC(=O)C1C=CCN(CC(=O)c2cccs2)C1 (stereo not shown) [compound 186, N′-(methylsulfonyl)-1-[2-oxo-2-(thiophen-2-yl)ethyl]-1,2,3,6-tetrahydropyridine-3-carbohydrazide]
- % Inhibition of AGE-LDL-formation ([5]; Conc. 250 uM): ++++ (++++ indicate >30%)
- % Inhibition of AGE-BSA Formation ([6]; Conc. 1 mM): + (+ indicate 0-10%)
